Measured values as given in publication PMC7272640, “Molecular docking, synthesis and biological evaluation of Vascular Endothelial Growth Factor (VEGF) B based peptide as antiangiogenic agent targeting the second domain of the Vascular Endothelial Growth Factor Receptor 1 (VEGFR1D2) for anticancer application” (Signal Transduction and Targeted Therapy, 2020).
Where a SMILES comes first, the peptide text is derived from it.

Test system: HUVEC
Assay: HUVEC Cytodex 3D bead sprouting assay
Assay type: cell-based, human
Details: HUVEC Cytodex beads in collagen gel; VGB3 0, 0.015, 0.03, 0.061 μM; VEGF (0.75 pM; method: 0.03 μg/ml VEGF-A); 24 h
Method: The fibrin or collagen sprouting angiogenesis assay was performed as previously described. Type I collagen was obtained as previously reported. HUVECs were allowed to attach to Cytodex microcarrier beads (Amersham Pharmacia Biotech, Sweden) by incubation in DMEM medium with 10% FBS for 4 h at 37 °C in 5% CO2 (60 μL of […] Cytodex beads were coated with 400 μl of HUVECs). EC-covered beads were embedded into the collagen gel under sodium bicarbonate conditions (Sigma, St. Louis, Missouri, USA), distributed in 96-well plates (100 μl/well), and placed in a 37 °C, 5% CO2 incubator for 30 min. Then DMEM supplemented with 2% FBS with a range of concentrations (0, 0.015, 0.03, 0.061 μM) of VGB3 in the presence of (0.03 μg.ml^-1) VEGF-A were added on top of the collagen gel. After 24 h, angiogenesis was monitored microscopically. All the capillary-like structures were photographed using an inverted microscope (Olympus BX-51, Japan) with a scale bar of 20 μm, and the number of sprouts grown on beads was quantified by ImageJ software. The assays were performed in triplicate.

## CC(C)C[C@@H]1NC(=O)CNC(=O)[C@H](CC(=O)O)NC(=O)[C@H](CC(=O)O)NC(=O)[C@@H]2CCCN2C(=O)[C@@H]2CCCN2C(=O)[C@H](CCCNC(=N)N)NC(=O)[C@@H](NC(=O)[C@@H](N)CCC(=O)O)CSSC[C@@H](C(=O)O)NC1=O [VGB3] (HELM PEPTIDE1{E.C.R.P.P.D.D.G.L.C}$PEPTIDE1,PEPTIDE1,2:R3-10:R3$$$V2.0)
  angiogenesis in vitro (sprouting): inhibits angiogenesis in vitro
